Assay results: patent US5609749A, “Electrochemical assay method with novel p-phenylenediamine compound” (Mochida Pharmaceutical Co., Ltd., priority 1993, dated 1997)
Where a name gives a salt, the structure may show the parent alone.

How the values were obtained:
[1] = Dry chemistry type chips: filter paper impregnated with mediator solution and dried on an electrode; details: mediator dried on cellulose or glass filter paper, dissolved by liquid sample
Description: In addition, the present inventors have attempted to prepare a dry chemistry type chips by impregnating a piece of cellulose filter paper or glass filter paper with a solution of HQ, PPD, TMPD or TEPD and drying the resulting piece on an electrode (by freeze-drying, vacuum drying, air-drying or the like) or arranging it on an electrode after drying so that the impregnated electron mediator can dissolve in a liquid sample at the time of measurement.

[2] = target: T1, Horseradish peroxidase (HRPO) (Armoracia rusticana, UniProt P00433); assay: Electron transfer activity 2: HRPO-hydrogen peroxide-compound, current at -80 mV or -150 mV; assay type: biochemical; details: -80 mV or -150 mV vs Ag/AgCl, pH 6.0
T1 construct: purchased TOYOBO
T1 sequence (P00433 31-338 limits assumed): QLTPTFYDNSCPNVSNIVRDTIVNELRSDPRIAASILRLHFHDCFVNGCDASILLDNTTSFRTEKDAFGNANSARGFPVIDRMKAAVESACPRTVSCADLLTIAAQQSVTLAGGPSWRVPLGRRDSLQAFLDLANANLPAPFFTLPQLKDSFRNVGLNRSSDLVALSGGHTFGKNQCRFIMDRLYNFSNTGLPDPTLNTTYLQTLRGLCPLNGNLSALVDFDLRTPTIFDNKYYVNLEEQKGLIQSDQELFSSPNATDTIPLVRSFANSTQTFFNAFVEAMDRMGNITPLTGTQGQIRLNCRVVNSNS
Experimental: Measurement of electron transfer activities of TCPD, THEPD, TDHPD, HTEPD, N,N-BHDPD, N,N'-BHPD, N,N'-BHDPD, and p-phenylenediamine derivatives having substituted amino group by reacting p-phenylenediamine with propyleneoxide--2
Horseradish peroxidase (HRPO, manufactured by TOYOBO) was dissolved in 0.1M phosphate buffer (pH 6.0) containing 0.1M NaCl to prepare 0M and 5.0×10^-7 M HRPO solutions. Also, hydrogen peroxide (manufactured by Wako Pure Chemical Industries) was dissolved in the same buffer to prepare a 1.0×10^-1 M solution. In the same manner, each of the TCPD, THEPD, TDHPD, HTEPD, N,N-BHDPD, N,N'-BHPD, N,N'-BHDPD, and p-phenylenediamine derivatives having substituted amino group by reacting p-phenylenediamine with propyleneoxide obtained in Synthesis Examples 1 to 9 was dissolved in the same buffer to prepare a 5.0×10^-3 M solution.
(§1) Each of these solutions was mixed in 0.1M phosphate buffer (pH 6.0) containing 0.1M NaCl in the following mixing ratio just before the measurement to prepare solutions of the following compositions A and B, and electric current was measured continuously in the presence (composition A) or absence (composition B) of HRPO.
Using the same apparatus of Test Example 2, electric current was measured in the presence (composition A) or absence (composition B) of HRPO for 5 or 10 minutes after application of potential of -80 mV (vs Ag/AgCl, the same shall apply hereinafter) in the case of TEPD, THEPD, and TDHPD, or -150 mV in the case of TCPD, HTEPD, N,N-BHDPD, N,N'-BHPD, N,N'-BHDPD, and p-phenylenediamine derivatives having substituted amino group by reacting p-phenylenediamine with propyleneoxide.

Glucose oxidase (GOD) = target: T2, Glucose oxidase (GOD) (Aspergillus niger, UniProt P13006); assay: Electron transfer activity 1: GOD-glucose-compound, current at +300 mV; assay type: biochemical; details: +300 mV vs Ag/AgCl, pH 6.0
T2 construct: purchased Boehringer-Mannheim
Experimental: Measurement of electron transfer activities of TEPD, TCPD, THEPD, TDHPD, HTEPD, N,N'-BHPD, N,N-BHDPD, N,N'-BHDPD, and p-phenylenediamine derivatives having substituted amino group by reacting p-phenylenediamine with propyleneoxide--1
Glucose oxidase (GOD, manufactured by Boehringer-Mannheim) was dissolved in 0.1M phosphate buffer (pH 6.0) containing 0.1M NaCl to prepare 0M and 4.0×10^-4 M GOD solutions. Also, glucose (manufactured by Junsei Kagaku) was dissolved in the same buffer to prepare a 1.5M solution. In the same manner, each of the TEPD, TCPD, THEPD, TDHPD, HTEPD, N,N-BHDPD, N,N'-BHPD, N,N'-BHDPD, and p-phenylenediamine derivatives having substituted amino group by reacting p-phenylenediamine with propyleneoxide obtained in Synthesis Examples 1 to 9 was dissolved in the same buffer to prepare a 5.0×10^-3 M solution.
as §1, with “and” for “and electric”, “GOD.” for “HRPO.”
Using the same apparatus of Test Example 2, electric current was measured in the presence (composition A) or absence (composition B) of GOD for 10 minutes under application of potential of +300 mV (vs Ag/AgCl) to the working electrode.

[3] = Current response of electron mediators in buffer solution and in the presence of blood, urine; details: for current response: in a buffer solution; for response in the presence of blood, urine and the like: interfering substances in blood
Description: (§2) Of these oxidation-reduction enzymes, glucose oxidase (GOD) is used in enzyme electrodes for the measurement of blood glucose level and horseradish peroxidase (HRPO) is used as a label enzyme in specific binding assays such as DNA hybridization, immunoassay and the like. […] However, these electron mediators were not able to show stable and reproducible response in the presence of blood, urine and the like because of the interfering substances contained therein.

[4] = Measurement of vapor pressures (gas flow method); assay type: physicochemical; details: for vapor pressure lower than that of TEPD / vapor pressure: at 25° C.; for vapor pressure: gas flow method; for property in drying (freeze-drying, vacuum drying, air-drying) and stability of dried states: compared with PPD, TMPD and TEPD, concluded from vapor pressures
Experimental: Measurement of vapor pressures of p-phenylenediamine(PPD), N,N,N',N'-tetramethyl-p-phenylenediamine (TMPD), TEPD, TCPD, THEPD and TDHPD
The PPD(manufactured by Wakoh Junyaku K.K), TMPD (manufactured by Tokyo Kasei K.K), further, TEPD, TCPD, THEPD and TDHPO obtained in the course of the procedures of Synthesis Examples 1 to 4 were checked for their vapor pressures.
Vapor densities (amount of evaporation/volume) of the solid samples (PPD, TMPD, TEPD, TCPD, THEPD and TDHPD) were measured by contacting each sample heated to a predetermined temperature with a stream of carrier gas (nitrogen) and saturating the sample with vapor, and vapor pressures of TEPD and THEPD were calculated from the data on an assumption that the vapor follows the law of ideal gas (gas flow method). The vapor density was calculated by measuring evaporation rate (loss rate) of each sample using an electric balance, and the carrier gas flow rate using a flow meter.
The vapor pressure was calculated from the vapor density based on the following formula.
In the above formula, P represents vapor pressure (mmHg), k represents evaporation rate (mg/min), v represents carrier gas flow rate (ml/min), k/v represents vapor density (mg/ml), M represents molecular weight of each sample, π represents pressure of the system (mmHg) and V represents molar volume of carrier gas (l/mol).

glucose oxidase = glucose oxidase (Aspergillus niger, UniProt P13006); assay: Current response in a buffer with electron mediator (inventors' experiments); assay type: biochemical; details: compared with conventional electron mediators (ferrocene derivatives, inorganic ions, metal complexes)
Description: as §2

horseradish peroxidase = target: T3, horseradish peroxidase (Armoracia rusticana, UniProt P00433); assay: as above; assay type: biochemical; details: compared with conventional electron mediators (ferrocene derivatives, inorganic ions, metal complexes)
T3 sequence (P00433 31-338 limits assumed): T1 sequence (P00433 31-338 limits assumed)
Description: as §2

T2 sequence (P13006 17-605): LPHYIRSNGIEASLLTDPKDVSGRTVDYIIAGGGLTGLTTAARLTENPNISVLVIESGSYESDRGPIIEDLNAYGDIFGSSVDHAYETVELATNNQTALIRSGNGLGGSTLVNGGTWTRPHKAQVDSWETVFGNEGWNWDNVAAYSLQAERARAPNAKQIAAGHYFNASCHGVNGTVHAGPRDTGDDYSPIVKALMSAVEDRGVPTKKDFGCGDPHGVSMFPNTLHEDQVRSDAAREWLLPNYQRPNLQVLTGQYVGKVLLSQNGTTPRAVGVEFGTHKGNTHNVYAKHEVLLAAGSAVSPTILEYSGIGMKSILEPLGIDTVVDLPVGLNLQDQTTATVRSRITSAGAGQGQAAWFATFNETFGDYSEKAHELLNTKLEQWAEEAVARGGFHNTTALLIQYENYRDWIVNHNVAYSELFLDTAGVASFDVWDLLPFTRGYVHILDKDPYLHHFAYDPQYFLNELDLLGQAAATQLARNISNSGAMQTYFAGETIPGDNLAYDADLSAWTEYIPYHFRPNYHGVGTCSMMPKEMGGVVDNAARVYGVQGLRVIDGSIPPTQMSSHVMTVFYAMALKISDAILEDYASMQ
Sequence of glucose oxidase (P13006 17-605): as above

Molecule | current response and characteristics of dry chemistry type chips [1] | function as electron mediator between HRPO and the electrode [2] | function as electron mediator between GOD and the electrode (Glucose oxidase (GOD)) | other results
Oc1ccc(O)cc1 [HQ, hydroquinone] | low current response and extremely poor characteristics | – | – | –
CCN(CC)c1ccc(N(CC)CCO)cc1 [HTEPD, N-2'-hydroxyethyl-,N,N',N'-triethyl-p-phenylenediamine dihydrochloride] | – | function as a reversible electron mediator between HRPO and the electrode | function as a reversible electron mediator between GOD and the electrode | –
CCN(CCO)c1ccc(N(CC)CCO)cc1.Cl.Cl [N,N'-BHDPD, N,N'-bis-(2'-hydroxyethyl)-N,N'-diethyl-p-phenylenediamine dihydrochloride] | – | function as a reversible electron mediator between HRPO and the electrode | function as a reversible electron mediator between GOD and the electrode | –
OCCNc1ccc(NCCO)cc1 [N,N'-BHPD, N,N'-bis-(2'-hydroxyethyl)-p-phenylenediamine] | – | function as a reversible electron mediator between HRPO and the electrode | function as a reversible electron mediator between GOD and the electrode | –
CCN(CC)c1ccc(N(CCO)CCO)cc1.Cl.Cl [N,N-BHDPD, N,N-bis-(2'-hydroxyethyl)-N',N'-diethyl-p-phenylenediamine dihydrochloride] | – | function as a reversible electron mediator between HRPO and the electrode | function as a reversible electron mediator between GOD and the electrode | –
Nc1ccc(N)cc1 [PPD, p-phenylenediamine] | low current response and extremely poor characteristics | – | – | current response [3]: excellent current response; response in the presence of blood, urine and the like [3]: interference
O=C(O)CN(CC(=O)O)c1ccc(N(CC(=O)O)CC(=O)O)cc1 [TCPD, N,N,N',N'-tetrakiscarboxymethyl-p-phenylenediamine] | – | function as a reversible electron mediator between HRPO and the electrode | function as a reversible electron mediator between GOD and the electrode | vapor pressure lower than that of TEPD [4]: about 50,000 times; vapor pressure [4]: 8.7×10^-9 mmHg; property in drying (freeze-drying, vacuum drying, air-drying) and stability of dried states [4]: superior to those of PPD, TMPD and TEPD
Cl.Cl.OCC(O)CN(CC(O)CO)c1ccc(N(CC(O)CO)CC(O)CO)cc1 (stereo not drawn) [TDHPD, N,N,N',N'-tetrakis-(2',3'-dihydroxypropyl)-p-phenylenediamine dihydrochloride] | – | function as a reversible electron mediator between HRPO and the electrode | function as a reversible electron mediator between GOD and the electrode | vapor pressure lower than that of TEPD [4]: about 420,000 times; vapor pressure [4]: 1.0×10^-9 mmHg; property in drying (freeze-drying, vacuum drying, air-drying) and stability of dried states [4]: superior to those of PPD, TMPD and TEPD
CN(C)c1ccc(N(C)C)cc1 [TMPD, N,N,N',N'-tetramethyl-p-phenylenediamine] | low current response and extremely poor characteristics | – | – | current response [3]: excellent current response; response in the presence of blood, urine and the like [3]: interference
hydroquinone (HQ)/benzoquinone (BQ) | – | – | – | current response (glucose oxidase): superior current response; current response (horseradish peroxidase): superior current response
